Common to all, as to type: cell-based
Assay [1] addresses T1, pEGFR in Ba/F3 cells expressing EGFR exon 20 ASV Ins V769_D770 (Homo sapiens, UniProt P00533, INS769ASV).
T1 construct: expressed in transfected cells; host or cells: Ba/F3 (murine pro-B cells), retroviral transduction, puromycin selection, IL3-independent pool
The assay is described as follows: Inhibitor activity on EGFR phosphorylation (pEGFR AlphaLISA, 2 h), Ba/F3 EGFR exon 20 ASV insertion. As to conditions: Ba/F3 EGFR exon 20 ASV Ins V769_D770. (In general: In Alpha technology, singlet oxygen from a donor bead excites a nearby acceptor bead.)

Assay [2] has as its target T2, Ba/F3 cells with EGFR exon 20 NPG Ins D770_N771 (Homo sapiens, UniProt P00533, INS770NPG).
T2 construct: expressed in transfected cells; host or cells: Ba/F3 (murine pro-B cells), retroviral transduction, puromycin selection, IL3-independent pool
The experiment in a line: EGFR activity: Ba/F3 cell viability (CellTiter-Glo, 72 h), EGFR exon 20 NPG insertion. As to conditions: EGFR exon 20 NPG Ins D770_N771, cell viability, read-out: BaF3 NPG IC50.

In assay [3] the target is T3, pEGFR in Ba/F3 cells expressing EGFR exon 20 NPG Ins D770_N771 (Homo sapiens, UniProt P00533, INS770NPG).
T3 construct: expressed in transfected cells; host or cells: Ba/F3 (murine pro-B cells), retroviral transduction, puromycin selection, IL3-independent pool
T3 sequence (P00533 with tags, fused parts or gaps INS770NPG): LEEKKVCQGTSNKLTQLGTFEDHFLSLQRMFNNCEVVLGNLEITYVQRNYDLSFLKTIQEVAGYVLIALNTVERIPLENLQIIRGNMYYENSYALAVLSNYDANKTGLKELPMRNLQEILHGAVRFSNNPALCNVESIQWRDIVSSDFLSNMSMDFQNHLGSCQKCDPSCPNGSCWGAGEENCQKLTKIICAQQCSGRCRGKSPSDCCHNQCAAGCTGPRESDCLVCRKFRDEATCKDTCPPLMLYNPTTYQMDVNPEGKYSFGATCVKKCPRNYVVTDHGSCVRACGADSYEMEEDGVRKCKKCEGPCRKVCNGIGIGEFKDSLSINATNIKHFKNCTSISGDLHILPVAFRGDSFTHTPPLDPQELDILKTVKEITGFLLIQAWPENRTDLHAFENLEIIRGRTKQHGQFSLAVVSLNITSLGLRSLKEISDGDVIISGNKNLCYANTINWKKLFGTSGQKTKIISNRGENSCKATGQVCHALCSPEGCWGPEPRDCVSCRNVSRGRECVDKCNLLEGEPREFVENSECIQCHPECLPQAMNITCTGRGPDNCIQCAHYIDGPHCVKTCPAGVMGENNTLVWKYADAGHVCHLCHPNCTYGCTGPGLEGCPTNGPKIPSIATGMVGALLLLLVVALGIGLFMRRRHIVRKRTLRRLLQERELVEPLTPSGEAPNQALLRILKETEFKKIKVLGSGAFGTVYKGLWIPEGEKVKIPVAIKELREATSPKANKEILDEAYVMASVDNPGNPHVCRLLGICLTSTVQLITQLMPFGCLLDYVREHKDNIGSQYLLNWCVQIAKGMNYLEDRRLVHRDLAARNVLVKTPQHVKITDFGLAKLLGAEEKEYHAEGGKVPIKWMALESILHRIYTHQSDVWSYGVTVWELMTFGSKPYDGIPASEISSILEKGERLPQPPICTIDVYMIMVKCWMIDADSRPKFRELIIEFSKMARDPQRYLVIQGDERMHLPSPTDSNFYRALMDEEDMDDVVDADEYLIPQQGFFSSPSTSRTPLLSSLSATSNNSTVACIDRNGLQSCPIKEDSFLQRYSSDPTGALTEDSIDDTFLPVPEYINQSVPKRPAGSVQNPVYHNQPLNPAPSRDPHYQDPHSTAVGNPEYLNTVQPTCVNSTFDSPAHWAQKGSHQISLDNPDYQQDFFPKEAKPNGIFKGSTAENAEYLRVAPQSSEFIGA
The experiment in a line: Inhibitor activity on EGFR phosphorylation (pEGFR AlphaLISA, 2 h), Ba/F3 EGFR exon 20 NPG insertion. As to conditions: Ba/F3 EGFR exon 20 NPG Ins D770_N771.

Another assay has as its target T4, Ba/F3 cells with EGFR WT (Homo sapiens, UniProt P00533).
T4 construct: expressed in transfected cells; host or cells: Ba/F3 (murine pro-B cells), retroviral transduction, puromycin selection, maintained with EGF
The experiment in a line: EGFR activity: Ba/F3 cell viability (CellTiter-Glo, 72 h), EGFR WT. As to conditions: read-out: BaF3 WT IC50. In general terms: ATP-based viability assays read luminescence as a measure of living cells.

Assay [4] has as its target T5, Ba/F3 cells with EGFR exon 20 ASV Ins V769_D770 (Homo sapiens, UniProt P00533, INS769ASV).
T5 construct: expressed in transfected cells; host or cells: Ba/F3 (murine pro-B cells), retroviral transduction, puromycin selection, IL3-independent pool
The experiment in a line: EGFR activity: Ba/F3 cell viability (CellTiter-Glo, 72 h), EGFR exon 20 ASV insertion. As to conditions: EGFR exon 20 ASV Ins V769_D770, cell viability, read-out: BaF3 ASV IC50.

The target in the next assay is T6, pEGFR in CUTO14 cells (Homo sapiens, UniProt P00533, DUP767-769).
T6 construct: endogenous in cells; host or cells: CUTO14 cells
T6 sequence (P00533 with tags, fused parts or gaps DUP767-769): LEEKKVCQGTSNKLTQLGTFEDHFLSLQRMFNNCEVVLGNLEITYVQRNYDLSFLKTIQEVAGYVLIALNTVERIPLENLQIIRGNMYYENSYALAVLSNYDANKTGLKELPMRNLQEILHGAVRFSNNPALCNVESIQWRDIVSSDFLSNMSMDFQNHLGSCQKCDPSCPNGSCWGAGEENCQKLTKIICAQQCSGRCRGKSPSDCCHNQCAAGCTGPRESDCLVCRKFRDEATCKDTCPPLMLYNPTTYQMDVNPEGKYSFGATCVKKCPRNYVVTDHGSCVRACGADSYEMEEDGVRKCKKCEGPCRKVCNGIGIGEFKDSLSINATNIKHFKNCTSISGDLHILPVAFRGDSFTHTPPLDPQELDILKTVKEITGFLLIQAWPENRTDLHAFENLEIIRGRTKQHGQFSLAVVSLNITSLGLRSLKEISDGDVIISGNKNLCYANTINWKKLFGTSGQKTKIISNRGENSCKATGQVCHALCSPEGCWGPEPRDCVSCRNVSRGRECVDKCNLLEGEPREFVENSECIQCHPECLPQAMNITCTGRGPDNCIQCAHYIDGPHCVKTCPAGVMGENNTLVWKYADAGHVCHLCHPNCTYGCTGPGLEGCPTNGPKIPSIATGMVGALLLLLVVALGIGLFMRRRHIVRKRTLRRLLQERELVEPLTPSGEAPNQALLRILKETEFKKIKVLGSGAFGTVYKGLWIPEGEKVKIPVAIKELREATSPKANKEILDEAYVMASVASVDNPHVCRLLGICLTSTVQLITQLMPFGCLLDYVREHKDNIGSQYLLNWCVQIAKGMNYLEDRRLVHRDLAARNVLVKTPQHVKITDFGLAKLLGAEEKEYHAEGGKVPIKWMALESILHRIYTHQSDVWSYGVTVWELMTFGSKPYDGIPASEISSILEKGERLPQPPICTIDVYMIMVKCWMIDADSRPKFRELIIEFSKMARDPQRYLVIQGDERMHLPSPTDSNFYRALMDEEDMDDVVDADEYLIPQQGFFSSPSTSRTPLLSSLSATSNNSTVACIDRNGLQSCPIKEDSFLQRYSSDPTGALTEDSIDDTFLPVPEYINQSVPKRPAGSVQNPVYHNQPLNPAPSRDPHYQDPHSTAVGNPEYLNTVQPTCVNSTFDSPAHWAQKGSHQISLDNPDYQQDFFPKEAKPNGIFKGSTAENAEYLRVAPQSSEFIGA
The assay is described as follows: Inhibitor activity on EGFR phosphorylation (pEGFR AlphaLISA, 2 h), CUTO14 cells. As to the method: CUTO14 cells were obtained from Dr. Robert C. Doebele at the University of Colorado.
Shake 350 rpm for 1 hr in the dark • 3.4 Prepare donor mix under low light conditions prior to use. Dispense 5 μL of donor mix to all the wells. Mix well on the shaker, seal and wrap in aluminum foil and incubate 1.5 hrs at room temperature in the dark • 3.5 Transfer 18.5 μL mixture to OptiPlate 384, and read using an Envision.

T2 sequence (P00533 with tags, fused parts or gaps INS770NPG): as the sequence (P00533 with tags, fused parts or gaps INS770NPG) above
T1 sequence (P00533 with tags, fused parts or gaps INS769ASV): as the sequence (P00533 with tags, fused parts or gaps DUP767-769) above

Consider `COc1c(F)cccc1Nc1c(-c2ccncc2OCC2CCn3ccnc32)[nH]c2c1C(=O)NCC2` (stereo not drawn) [Compound 124, 3-[(3-fluoro-2-methoxyphenyl)amino]-2-(3-[5H,6H,7H-pyrrolo[1,2-a]imidazol-7-ylmethoxy]pyridin-4-yl)-1H,5H,6H,7H-pyrrolo[3,2-c]pyridin-4-one], for which the concentration for half-maximal inhibition (IC50) – broadly, the concentration at which inhibition is half-maximal – in assay [1] was 100 to 1000 nM; in assay [2] it was above 1000 nM; in assay [3], below 100 nM; at Ba/F3 cells with EGFR WT, above 1000 nM; in assay [4], 100 to 1000 nM.
Take `COc1c(F)cccc1Nc1c(-c2ccncc2OCc2csc3nccn23)[nH]c2c1C(=O)NCC2` [Compound 130, 3-[(3-fluoro-2-methoxyphenyl)amino]-2-(3-[imidazo[2,1-b][1,3]thiazol-3-ylmethoxy]pyridin-4-yl)-1H,5H,6H,7H-pyrrolo[3,2-c]pyridin-4-one]: the IC50 (in assay [1]; in assay [2]; on Ba/F3 cells with EGFR WT; in assay [4]) was above 1000 nM throughout.
Turning to `COc1c(F)cccc1Nc1c(-c2ccncc2OCc2cnc3n2CCC3)[nH]c2c1C(=O)NCC2` [Compound 150, 2-(3-((6,7-dihydro-5H-pyrrolo[1,2-a]imidazol-3-yl)methoxy)pyridin-4-yl)-3-((3-fluoro-2-methoxyphenyl)amino)-1,5,6,7-tetrahydro-4H-pyrrolo[3,2-c]pyridin-4-one], the 50% inhibitory concentration (IC50) in assay [1] is below 100 nM; in assay [2], above 1000 nM; on Ba/F3 cells with EGFR WT, above 1000 nM; in assay [4], 100 to 1000 nM.
On to `COc1c(F)cccc1Nc1c(-c2ccncc2OCc2ccccn2)[nH]c2c1C(=O)NCC2` [Compound 472, 3-[(3-fluoro-2-methoxyphenyl)amino]-2-[3-(pyridin-2-ylmethoxy)pyridin-4-yl]-1H,5H,6H,7H-pyrrolo[3,2-c]pyridin-4-one], for which the half-inhibitory concentration (IC50) (in assay [2]; in assay [3]; on Ba/F3 cells with EGFR WT; in assay [4]) was below 100 nM in each case.
With `COc1c(F)cccc1Nc1c(-c2ccncc2OCc2ncco2)[nH]c2c1C(=O)NCC2` [Compound 474, 3-[(3-fluoro-2-methoxyphenyl)amino]-2-[3-(1,3-oxazol-2-ylmethoxy)pyridin-4-yl]-1H,5H,6H,7H-pyrrolo[3,2-c]pyridin-4-one], the IC50 was below 100 nM in assay [1], above 1000 nM in assay [2], 100 to 1000 nM on Ba/F3 cells with EGFR WT and 100 to 1000 nM in assay [4].
Regarding `COc1cccnc1COc1cnccc1-c1[nH]c2c(c1Nc1cccc(F)c1OC)C(=O)NCC2` [Compound 476, 3-[(3-fluoro-2-methoxyphenyl)amino]-2-[3-[(3-methoxypyridin-2-yl)methoxy]pyridin-4-yl]-1H,5H,6H,7H-pyrrolo[3,2-c]pyridin-4-one], the IC50 in assay [2] was below 100 nM; in assay [3], below 100 nM; at Ba/F3 cells with EGFR WT, 100 to 1000 nM; in assay [4] it was below 100 nM.
With `COc1c(F)cccc1Nc1c(-c2ccncc2OCc2ncc(C)cn2)[nH]c2c1C(=O)NCC2` [Compound 477, 3-[(3-fluoro-2-methoxyphenyl)amino]-2-[3-[(5-methylpyrimidin-2-yl)methoxy]pyridin-4-yl]-1H,5H,6H,7H-pyrrolo[3,2-c]pyridin-4-one], the IC50 (in assay [1]; in assay [2]; in assay [3]; at Ba/F3 cells with EGFR WT) was below 100 nM each time.
For `COc1c(F)cccc1Nc1c(-c2ccncc2OCc2cn3ccccc3n2)[nH]c2c1C(=O)NCC2` [Compound 481, 3-[(3-fluoro-2-methoxyphenyl)amino]-2-(3-[imidazo[1,2-a]pyridin-2-ylmethoxy]pyridin-4-yl)-1H,5H,6H,7H-pyrrolo[3,2-c]pyridin-4-one], the IC50 in assay [1] is below 100 nM; in assay [2] it was above 1000 nM; at Ba/F3 cells with EGFR WT, 100 to 1000 nM; in assay [4] it was below 100 nM.
Take `C=CC(=O)N1CCC[C@H]1COc1cnccc1-c1[nH]c2c(c1Nc1cccc(F)c1CC)C(=O)NCC2` [compound 211, 3-[(2-ethyl-3-fluorophenyl)amino]-2-(3-{[(2S)-1-(prop-2-enoyl)pyrrolidin-2-yl]methoxy}pyridin-4-yl)-1H,5H,6H,7H-pyrrolo[3,2-c] pyridin-4-one]: the half-inhibitory concentration (IC50) (in assay [2]; in assay [3]; at Ba/F3 cells with EGFR WT; in assay [4]) was below 100 nM each time.
With `C=C(F)C(=O)N1CC[C@@H]1COc1cnccc1-c1[nH]c2c(c1Nc1cccc(Cl)c1OC)C(=O)NCC2` [compound 226, 3-[(3-chloro-2-methoxyphenyl)amino]-2-(3-{[(2R)-1-(2-fluoroprop-2-enoyl)azetidin-2-yl]methoxy}pyridin-4-yl)-1H,5H,6H,7H-pyrrolo[3,2-c]pyridin-4-one], the IC50 was below 100 nM in assay [2], below 100 nM in assay [3], 100 to 1000 nM on Ba/F3 cells with EGFR WT and below 100 nM in assay [4].
In the case of `CC#CC(=O)N1CC[C@@H]1COc1cnccc1-c1[nH]c2c(c1Nc1cccc(Cl)c1OC)C(=O)NCC2` [compound 227], the IC50 in assay [2] was below 100 nM; in assay [3] it was below 100 nM; on Ba/F3 cells with EGFR WT, 100 to 1000 nM; at pEGFR in CUTO14 cells it was below 100 nM; in assay [4] it was below 100 nM.
In the case of `C=CC(=O)N1CCC[C@]1(C)C#Cc1cnccc1-c1[nH]c2c(c1Nc1cccc(F)c1OC)C(=O)NCC2` [compound 245, 3-[(3-fluoro-2-methoxyphenyl)amino]-2-(3-{2-[(2R)-2-methyl-1-(prop-2-enoyl)pyrrolidin-2-yl]ethynyl}pyridin-4-yl)-1H,5H,6H,7H-pyrrolo[3,2-c]pyridin-4-one], the IC50 (in assay [3]; against pEGFR in CUTO14 cells) was below 100 nM each time.
In the case of `C=CC(=O)NC(C)(C)C#Cc1cnccc1-c1[nH]c2c(c1Nc1cccc(F)c1OC)C(=O)NCC2` [compound 258, N-[4-(4-{3-[(3-fluoro-2-methoxyphenyl)amino]-4-oxo-1H,5H,6H,7H-pyrrolo[3,2-c]pyridin-2-yl}pyridin-3-yl)-2-methylbut-3-yn-2-yl]prop-2-enamide], the half-inhibitory concentration (IC50) (in assay [3]; against pEGFR in CUTO14 cells) was below 100 nM in each case.
Regarding `COc1c(Cl)cccc1Nc1c(-c2ccncc2C#CC2CC2)[nH]c2c1C(=O)NCC2` [compound 488], the IC50 in assay [1] is below 100 nM; in assay [2], below 100 nM; at Ba/F3 cells with EGFR WT, 100 to 1000 nM; in assay [4], below 100 nM.
`COc1c(Cl)cccc1Nc1c(-c2ccncc2C#CC2(C)COC2)[nH]c2c1C(=O)NCC2` [compound 490]: the IC50 in assay [1] was below 100 nM; on Ba/F3 cells with EGFR WT, above 1000 nM; in assay [4] it was 100 to 1000 nM.
On to `C=CC(=O)NC(C)(C)C#Cc1cnccc1-c1[nH]c2c(c1Nc1cccc(Cl)c1OC)C(=O)NCC2` [compound 492, N-[4-(4-{3-[(3-chloro-2-methoxyphenyl)amino]-4-oxo-1H,5H,6H,7H-pyrrolo[3,2-c]pyridin-2-yl}pyridin-3-yl)-2-methylbut-3-yn-2-yl]prop-2-enamide], for which the IC50 (in assay [3]; on pEGFR in CUTO14 cells) was below 100 nM each time.
Turning to `COc1c(Cl)cccc1Nc1c(-c2ccncc2C#C[C@@H]2CN(C)CCO2)[nH]c2c1C(=O)NCC2` [compound 496], the half-inhibitory concentration (IC50) in assay [2] was below 100 nM; in assay [3], below 100 nM; on Ba/F3 cells with EGFR WT, above 1000 nM; in assay [4] it was below 100 nM.

Source of the values: patent US20230364070A1, “PYRROLO[3,2-C]PYRIDIN-4-ONE DERIVATIVES USEFUL IN THE TREATMENT OF CANCER” (Scorpion Therapeutics, Inc., priority 2020, published 2023).
